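Cultured in 96-well plates, cells were exposed to test compound for 48 hours across five concentrations. GI50 is the concentration that inhibits growth by half. TGI is the concentration that stops growth completely.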
Key:
Assay in all cases: growth of human tumour cells (NCI), 48 h
HOP-92 NSCLC = system: HOP-92 NSCLC
MCF7 breast = system: MCF7 breast
SK-MEL-5 melanoma = system: SK-MEL-5 melanoma
SNB-19 CNS = system: SNB-19 CNS
SF-268 CNS = system: SF-268 CNS
EKVX NSCLC = system: EKVX NSCLC
SW-620 colon = system: SW-620 colon
NCI-H460 lung = system: NCI-H460 lung
HCC-2998 colon = system: HCC-2998 colon
UO-31 renal = system: UO-31 renal
KM12 colon = system: KM12 colon
MALME-3M melanoma = system: MALME-3M melanoma
DU-145 prostate = system: DU-145 prostate
BT-549 breast = system: BT-549 breast
M14 melanoma = system: M14 melanoma
SK-MEL-2 melanoma = system: SK-MEL-2 melanoma
HS 578T breast = system: HS 578T breast
SK-OV-3 ovarian = system: SK-OV-3 ovarian
HCT-15 colon = system: HCT-15 colon
SNB-75 CNS = system: SNB-75 CNS
NCI-H23 lung = system: NCI-H23 lung
RPMI-8226 leukemia = system: RPMI-8226 leukemia
ACHN renal = system: ACHN renal
786-0 renal = system: 786-0 renal
LOX IMVI melanoma = system: LOX IMVI melanoma
T-47D breast = system: T-47D breast
MDA-MB-435 = system: MDA-MB-435
SF-539 CNS = system: SF-539 CNS
UACC-62 melanoma = system: UACC-62 melanoma
SR leukemia = system: SR leukemia
OVCAR-4 ovarian = system: OVCAR-4 ovarian
NCI-H522 lung = system: NCI-H522 lung
RXF 393 renal = system: RXF 393 renal
OVCAR-3 ovarian = system: OVCAR-3 ovarian
OVCAR-5 ovarian = system: OVCAR-5 ovarian
MDA-MB-231 breast = system: MDA-MB-231 breast
SF-295 CNS = system: SF-295 CNS
SK-MEL-28 melanoma = system: SK-MEL-28 melanoma
CAKI-1 renal = system: CAKI-1 renal
MOLT-4 leukemia = system: MOLT-4 leukemia
TK-10 renal = system: TK-10 renal
HT29 colon = system: HT29 colon
HCT-116 colon = system: HCT-116 colon
A498 renal = system: A498 renal
UACC-257 melanoma = system: UACC-257 melanoma
K-562 leukemia = system: K-562 leukemia
HL-60(TB) leukemia = system: HL-60(TB) leukemia
OVCAR-8 ovarian = system: OVCAR-8 ovarian
NCI/ADR-RES ovarian = system: NCI/ADR-RES ovarian
U251 CNS = system: U251 CNS
HOP-62 NSCLC = system: HOP-62 NSCLC
A549 NSCLC = system: A549 NSCLC
COLO 205 colon = system: COLO 205 colon
NCI-H226 lung = system: NCI-H226 lung
PC-3 prostate = system: PC-3 prostate
IGROV1 ovarian = system: IGROV1 ovarian
CCRF-CEM leukemia = system: CCRF-CEM leukemia

COc1ccc(Nc2nc(Nc3cc(C)[nH]n3)c3cc(OC)c(OC)cc3n2)cc1
GI50 (HOP-92 NSCLC): 1.29 µM
TGI (HOP-92 NSCLC): 2.93 µM
GI50 (MCF7 breast): 0.457 µM
TGI (MCF7 breast): 2.05 µM
GI50 (SK-MEL-5 melanoma): 1.37 µM
TGI (SK-MEL-5 melanoma): 3.05 µM
GI50 (SNB-19 CNS): 1.56 µM
TGI (SNB-19 CNS): 3.18 µM
GI50 (SF-268 CNS): 1.35 µM
TGI (SF-268 CNS): 2.92 µM
GI50 (EKVX NSCLC): 1.48 µM
TGI (EKVX NSCLC): 2.94 µM
GI50 (SW-620 colon): 0.314 µM
TGI (SW-620 colon): 1.02 µM
GI50 (NCI-H460 lung): 0.569 µM
TGI (NCI-H460 lung): 2.09 µM
GI50 (HCC-2998 colon): 1.32 µM
TGI (HCC-2998 colon): 2.9 µM
GI50 (UO-31 renal): 1.45 µM
TGI (UO-31 renal): 2.93 µM
GI50 (KM12 colon): 0.61 µM
TGI (KM12 colon): 2.09 µM
GI50 (MALME-3M melanoma): 1.65 µM
TGI (MALME-3M melanoma): 3.19 µM
GI50 (DU-145 prostate): 1.03 µM
TGI (DU-145 prostate): 2.24 µM
GI50 (BT-549 breast): 1.4 µM
TGI (BT-549 breast): 2.9 µM
GI50 (M14 melanoma): 1.31 µM
TGI (M14 melanoma): 2.89 µM
GI50 (SK-MEL-2 melanoma): 1.77 µM
TGI (SK-MEL-2 melanoma): 3.56 µM
GI50 (HS 578T breast): 1.25 µM
TGI (HS 578T breast): 3.15 µM
GI50 (SK-OV-3 ovarian): 1.83 µM
TGI (SK-OV-3 ovarian): 3.33 µM
GI50 (HCT-15 colon): 0.685 µM
TGI (HCT-15 colon): 2.45 µM
GI50 (SNB-75 CNS): 1.66 µM
TGI (SNB-75 CNS): 3.15 µM
GI50 (NCI-H23 lung): 1.16 µM
TGI (NCI-H23 lung): 2.82 µM
GI50 (RPMI-8226 leukemia): 0.278 µM
TGI (RPMI-8226 leukemia): 0.782 µM
GI50 (ACHN renal): 1.45 µM
TGI (ACHN renal): 2.78 µM
GI50 (786-0 renal): 1.49 µM
TGI (786-0 renal): 3.02 µM
GI50 (LOX IMVI melanoma): 0.441 µM
TGI (LOX IMVI melanoma): 1.7 µM
GI50 (T-47D breast): 1.07 µM
TGI (T-47D breast): 3.48 µM
GI50 (MDA-MB-435): 1.23 µM
TGI (MDA-MB-435): 2.58 µM
GI50 (SF-539 CNS): 1.1 µM
TGI (SF-539 CNS): 2.39 µM
GI50 (UACC-62 melanoma): 1.71 µM
TGI (UACC-62 melanoma): 3.39 µM
GI50 (SR leukemia): 0.386 µM
TGI (SR leukemia): > 100 µM
GI50 (OVCAR-4 ovarian): 0.789 µM
TGI (OVCAR-4 ovarian): 2.22 µM
GI50 (NCI-H522 lung): 1.44 µM
TGI (NCI-H522 lung): 4.48 µM
GI50 (RXF 393 renal): 1.49 µM
TGI (RXF 393 renal): 2.83 µM
GI50 (OVCAR-3 ovarian): 1.01 µM
TGI (OVCAR-3 ovarian): 2.26 µM
GI50 (OVCAR-5 ovarian): 2 µM
TGI (OVCAR-5 ovarian): 3.74 µM
GI50 (MDA-MB-231 breast): 1.35 µM
TGI (MDA-MB-231 breast): 2.9 µM
GI50 (SF-295 CNS): 1.33 µM
TGI (SF-295 CNS): 2.68 µM
GI50 (SK-MEL-28 melanoma): 1.7 µM
TGI (SK-MEL-28 melanoma): 3.26 µM
GI50 (CAKI-1 renal): 1.59 µM
TGI (CAKI-1 renal): 2.95 µM
GI50 (MOLT-4 leukemia): 0.389 µM
TGI (MOLT-4 leukemia): 2.58 µM

Cn1cc(-c2cc(-c3cn(C)c4ccc(Cl)cc34)[nH]n2)c2cc(Cl)ccc21
GI50 (TK-10 renal): 5.16 µM
TGI (TK-10 renal): 23.7 µM
GI50 (HOP-92 NSCLC): 1.86 µM
TGI (HOP-92 NSCLC): 4.74 µM
GI50 (MCF7 breast): 2.64 µM
TGI (MCF7 breast): 6.89 µM
GI50 (SK-MEL-5 melanoma): 1.79 µM
TGI (SK-MEL-5 melanoma): 3.6 µM
GI50 (SNB-19 CNS): 4.09 µM
TGI (SNB-19 CNS): 20.1 µM
GI50 (SF-268 CNS): 5.29 µM
TGI (SF-268 CNS): 44.4 µM
GI50 (EKVX NSCLC): 3.15 µM
TGI (EKVX NSCLC): 15 µM
GI50 (SW-620 colon): 3.52 µM
TGI (SW-620 colon): 14.6 µM
GI50 (NCI-H460 lung): 2.35 µM
TGI (NCI-H460 lung): 5.47 µM
GI50 (HCC-2998 colon): 1.71 µM
TGI (HCC-2998 colon): 3.84 µM
GI50 (HT29 colon): 3.57 µM
TGI (HT29 colon): 18.1 µM
GI50 (HCT-116 colon): 3.82 µM
TGI (HCT-116 colon): 15.8 µM
GI50 (UO-31 renal): 3.01 µM
TGI (UO-31 renal): 14.8 µM
GI50 (KM12 colon): 3.45 µM
TGI (KM12 colon): 22.9 µM
GI50 (MALME-3M melanoma): 9.64 µM
TGI (MALME-3M melanoma): 67.4 µM
GI50 (DU-145 prostate): 9.6 µM
TGI (DU-145 prostate): > 100 µM
GI50 (BT-549 breast): 2.03 µM
TGI (BT-549 breast): 5.24 µM
GI50 (A498 renal): 2.44 µM
TGI (A498 renal): 9.79 µM
GI50 (M14 melanoma): 2.15 µM
TGI (M14 melanoma): 5.3 µM
GI50 (SK-MEL-2 melanoma): 2.34 µM
TGI (SK-MEL-2 melanoma): 6.13 µM
GI50 (HS 578T breast): 3.27 µM
TGI (HS 578T breast): 20 µM
GI50 (SK-OV-3 ovarian): 5.81 µM
TGI (SK-OV-3 ovarian): > 100 µM
GI50 (HCT-15 colon): 3.01 µM
TGI (HCT-15 colon): 15.1 µM
GI50 (SNB-75 CNS): 4.25 µM
TGI (SNB-75 CNS): 30.6 µM
GI50 (NCI-H23 lung): 2.48 µM
TGI (NCI-H23 lung): 7.69 µM
GI50 (RPMI-8226 leukemia): 6.79 µM
TGI (RPMI-8226 leukemia): > 100 µM
GI50 (UACC-257 melanoma): 4.26 µM
TGI (UACC-257 melanoma): 34.2 µM
GI50 (ACHN renal): 3.23 µM
TGI (ACHN renal): 12.8 µM
GI50 (K-562 leukemia): 2.78 µM
TGI (K-562 leukemia): 5.98 µM
GI50 (786-0 renal): 3.41 µM
TGI (786-0 renal): 11.4 µM
GI50 (HL-60(TB) leukemia): 4.45 µM
TGI (HL-60(TB) leukemia): 18.1 µM
GI50 (LOX IMVI melanoma): 1.7 µM
TGI (LOX IMVI melanoma): 3.8 µM
GI50 (OVCAR-8 ovarian): 4.03 µM
TGI (OVCAR-8 ovarian): 19.8 µM
GI50 (NCI/ADR-RES ovarian): 2.25 µM
TGI (NCI/ADR-RES ovarian): 6.59 µM
GI50 (U251 CNS): 3.37 µM
TGI (U251 CNS): 12.9 µM
GI50 (T-47D breast): 4.06 µM
TGI (T-47D breast): 20.7 µM
GI50 (SF-539 CNS): 1.81 µM
TGI (SF-539 CNS): 3.46 µM
GI50 (UACC-62 melanoma): 1.63 µM
TGI (UACC-62 melanoma): 3.35 µM
GI50 (SR leukemia): 2.36 µM
TGI (SR leukemia): 7.71 µM
GI50 (OVCAR-4 ovarian): 5.82 µM
TGI (OVCAR-4 ovarian): 28.4 µM
GI50 (HOP-62 NSCLC): 7.98 µM
TGI (HOP-62 NSCLC): 94.8 µM
GI50 (NCI-H522 lung): 1.75 µM
TGI (NCI-H522 lung): 3.84 µM
GI50 (RXF 393 renal): 3.03 µM
TGI (RXF 393 renal): 16.2 µM
GI50 (OVCAR-3 ovarian): 4.41 µM
TGI (OVCAR-3 ovarian): 40.6 µM
GI50 (A549 NSCLC): 3.24 µM
TGI (A549 NSCLC): 14.4 µM
GI50 (OVCAR-5 ovarian): 3.11 µM
TGI (OVCAR-5 ovarian): 13 µM
GI50 (MDA-MB-231 breast): 2.95 µM
TGI (MDA-MB-231 breast): 15.1 µM
GI50 (SF-295 CNS): 2.52 µM
TGI (SF-295 CNS): 8.65 µM
GI50 (COLO 205 colon): 2.22 µM
TGI (COLO 205 colon): 5.35 µM
GI50 (NCI-H226 lung): 5.29 µM
TGI (NCI-H226 lung): > 100 µM
GI50 (SK-MEL-28 melanoma): 4.8 µM
TGI (SK-MEL-28 melanoma): 79.6 µM
GI50 (PC-3 prostate): 3.05 µM
TGI (PC-3 prostate): 14.2 µM
GI50 (CAKI-1 renal): 1.7 µM
TGI (CAKI-1 renal): 6.05 µM
GI50 (IGROV1 ovarian): 2.55 µM
TGI (IGROV1 ovarian): 6.37 µM
GI50 (CCRF-CEM leukemia): 6.4 µM
TGI (CCRF-CEM leukemia): 23.8 µM
GI50 (MOLT-4 leukemia): 1.55 µM
TGI (MOLT-4 leukemia): 11.8 µM

Source: PubChem BioAssay (NCI)
